In patent US20240398783A1, “Compounds and Pharmaceutical Compositions Comprising Inhibitors of Amyloid Peptide Interactions with Glycosaminoglycans, Methods of Treatment and Use Thereof” (Gismo Therapeutics, Inc., priority 2021, published 2024) one finds inhibition and IC50 data, which are given here for 18 molecules.

Assay [1] addresses Alpha-Synuclein Protofibril binding to heparin (HS-GAG) (Homo sapiens, UniProt P37840). Kind of assay: Inhibition of alpha-synuclein protofibril binding to immobilized heparin-BSA (ELISA). Set-up: species or system porcine. The following applies: for inhibition at 30 µM: read-out: Alpha-Synuclein/Heparin Activity (% inhibition class); for IC50: alpha-synuclein protofibrils, heparin-BSA. As for the experimental part:
(§1) Porcine intestinal mucosa heparin conjugated to Bovine Serum Albumin (Heparin-BSA) was prepared as described (Najjam, S. et al. 1997, Cytokine 12, 1013-1022). Heparin is a sulfated HS-GAG and is commonly used as a HS-GAG in biochemical and binding assays (Lindahl, U. and Kjellen, L. (2013) ibid). Heparin-BSA at 0.01 mg/ml in Phosphate Buffered Saline (PBS; pH 7.4) was added to a 96 well polystyrene ELISA plate (NUNC Cat. No. 449824; 100 μl per well) and incubated Over Night (ON) at 4 degrees Celsius. For negative controls, ELISA plates were coated with BSA instead of Heparin-BSA, using the same procedure. Following the incubation, the plate was washed consecutively, by immersion, with de-ionized water and PBS (pH 7.4). The ELISA plate was then blocked with nonfat milk (2%, 200 μl per well) for 2 hours at Room Temperature (RT) with gentle shaking. Following blocking, the plate was washed with de-ionized water then PBS (pH 7.4). GBAPs were dissolved and diluted in PBS (pH 6.5, supplemented with 0.1% BSA) at desired concentrations, added to the ELISA plates containing immobilized Heparin-BSA (100 μl per well) and incubated for 2 hours at RT with gentle shaking. Following incubation, the plate was washed with de-ionized water and three times with PBS (pH 6.5) plus Tween. Bound GBAP was detected by a monoclonal antibody specific for that GBAP, followed by incubation with secondary antibody conjugated to horseradish peroxidase (HRP). Antibody was diluted in PBS (pH 6.5 supplemented with 1% BSA). Following each incubation with antibody, the plate was washed with de-ionized water and three times with PBS (pH 6.5) wash buffer containing 0.1% Tween. The peroxidase substrate chromogen, TMB (Dako Cat. No. S1599) was added (100 μl per well) to the ELISA plate and incubated at room temperature. After 5 minutes ELISA Stop Solution (hydrochloric acid 1N, sulfuric acid 3N) was added (100 μl per well) to stop the peroxidase catalyzed colorimetric reaction. The Optical Density of the samples was measured at 450 nm using an ELISA plate reader (BioTek Synergy H1). Following color development, the % inhibition compared to control (BSA-coated plates) was determined. IC-50s were calculated using GraphPad Prism software.
The assay was performed as described in Example 43, with the following modifications. Following to coating the plates with Heparin-BSA, plates were washed as described. The compounds were dissolved in DMSO at 10 mM final concentration and further diluted prior to assay. DMSO concentration in the screening well was up to […]. Individual compounds were co-incubated with alpha-synuclein on plates containing immobilized heparin. Alpha-synuclein purchased from rPeptide (Cat. No. S1001) was used to prepare protofibrils as described in Ihse et al., 2017. Alpha-synuclein was dissolved in PBS (pH7.4) to a concentration of 140 μM (˜2 mg/ml), and incubated for 7 days at 37° C. with rotary agitation (400 rpm). Resulting fibrils were sonicated for 10 minutes in ultrasonic water bath, quickly frozen and kept in aliquots at −80 degrees Celsius. Protofibrillar alpha-synuclein diluted in PBS (pH 6.5, supplemented with BSA, 0.1%) was added to the ELISA plate (100 μl per well) and incubated for 2 hours at RT with gentle shaking. Following the incubation, the plate was washed with de-ionized water and three times with PBS (pH 6.5) plus Tween. Bound Alpha-synuclein was detected by Anti-Alpha-synuclein Monoclonal Antibody 211 (Santa Cruz Cat. No. sc-12767), followed by secondary anti-IgG antibody conjugated to HRP (R&D System, Cat. No. HAF007). Following to color development with TMB, as described in Example 43, the Optical Density of the samples was measured at 450 nm using an ELISA plate reader. Following color development, the % inhibition compared to control (no compound, DMSO control) for every compound was determined.
An example of inhibition curve is shown in FIG. 1 for Inhibitor Compounds 22 and 24. […]

Assay [2] concerns the target Tau binding to heparin (HS-GAG) (Homo sapiens, UniProt P10636). Kind of assay: Inhibition of Tau binding to immobilized heparin-BSA (ELISA). Also on record: species or system porcine. The following applies: for IC50: Tau, heparin-BSA; for inhibition at 30 µM: read-out: Tau/Heparin Activity (% inhibition class). As for the experimental part: as §1
The assay was performed as described in Example 43, with the following modifications. Following to coating the plates with Heparin-BSA, plates were washed as described. The compounds were dissolved in DMSO at 10 mM final concentration and further diluted prior to assay. DMSO concentration in the screening well was up to 2%. Individual compounds were co-incubated with Tau on plates containing immobilized heparin. Tau purchased from rPeptide (Cat. No. T1001) was dissolved in DMSO (Sigma Cat. No. D2650), quickly frozen and kept in aliquots at −80 degrees Celsius. Tau dissolved in PBS (pH 6.5, supplemented with BSA, 0.1%) was added to the ELISA plate (100 μl per well) and incubated for 2 hours at RT with gentle shaking. Following the incubation, the plate was washed with de-ionized water and three times with PBS (pH 6.5) plus Tween. Bound Tau was detected by anti-Tau Monoclonal Antibody D-8 (Santa Cruz Cat. No. sc-166060), followed by secondary anti-IgG antibody conjugated to HRP (R&D System, Cat. No. HAF007). Following to color development with TMB, as described in Example 43, the Optical Density of the samples was measured at 450 nm using an ELISA plate reader. Following color development, the % inhibition compared to control (no compound, DMSO control) for every compound was determined.
An example of inhibition curve is shown in FIG. 3 for Inhibitor Compounds 3 and 6. As described in Example 43, Heparin in the form of Heparin-BSA conjugate is used as a source of HS-GAG. For each compound IC-50 value in Tau—heparin-BSA binding assay is shown in […]. In some cases IC-50 was not measured and […] at 30 μM compound concentration is shown instead. […]

[3] abbreviates: read-out: Alpha-Synuclein/Heparin Activity (IC-50).
Where [4] appears, read: read-out: Tau/Heparin Activity (IC-50).
[5] abbreviates: Alpha-Synuclein/Heparin Activity (IC-50).

Counter-ions that a name gives are not always drawn. Like-named read-outs stand apart in the source and are kept apart here. Bounds are passed on as bounds.

Sequence of Tau binding to heparin (HS-GAG) (P10636 with tags, fused parts or gaps): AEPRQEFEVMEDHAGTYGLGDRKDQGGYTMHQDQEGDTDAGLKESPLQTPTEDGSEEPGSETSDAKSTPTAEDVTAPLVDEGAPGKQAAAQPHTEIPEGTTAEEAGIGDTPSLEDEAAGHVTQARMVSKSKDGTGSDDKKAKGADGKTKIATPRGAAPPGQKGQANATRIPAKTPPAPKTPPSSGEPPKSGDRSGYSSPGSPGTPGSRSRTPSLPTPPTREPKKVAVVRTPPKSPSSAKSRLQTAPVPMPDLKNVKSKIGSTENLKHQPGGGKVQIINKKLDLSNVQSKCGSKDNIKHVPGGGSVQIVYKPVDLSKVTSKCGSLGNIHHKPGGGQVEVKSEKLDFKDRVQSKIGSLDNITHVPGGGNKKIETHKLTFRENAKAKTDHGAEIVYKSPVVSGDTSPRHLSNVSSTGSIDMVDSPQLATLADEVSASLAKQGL

Turning to `C/C(=N\Nc1ncnc2ccccc12)c1ccc(-n2cc(C)nc2C)nc1` [Compound 19, (E)-4-(2-(1-(6-(2,4-dimethyl-1H-imidazol-1-yl)pyridin-3-yl)ethylidene)hydrazineyl)quinazoline], in assay [1], the inhibition at 30 µM was less than 30%. The IC50 in assay [2] (Tau/Heparin Activity (IC-50)) was 46.6 µM.

For the molecule `CN1CCN(c2cc(Nc3ccnc4cc(Cl)ccc34)ccn2)CC1` [Compound 20, 7-chloro-N-(2-(4-methylpiperazin-1-yl)pyridin-4-yl)quinolin-4-amine], the inhibition at 30 µM in assay [1] and in assay [2] was less than 30% throughout.

Take `C/C(=N\Nc1ncnc2cc(F)ccc12)c1ccc(-n2cnc(C)c2C)nc1` [Compound 21, (E)-4-(2-(1-(6-(4,5-dimethyl-1H-imidazol-1-yl)pyridin-3-yl)ethylidene)hydrazineyl)-7-fluoroquinazoline]: the IC50 turned out to be 2.06 µM in assay [1] (setting [3]) and 80.9 µM in assay [2] (setting [4]).

As to `CC(=NNc1ccnc2cc(Cl)ccc12)c1ccc(-n2cnc(C)c2C)nc1` [Compound 22, 7-chloro-4-(2-(1-(6-(4,5-dimethyl-1H-imidazol-1-yl)pyridin-3-yl)ethylidene)hydrazineyl)quinoline], the IC50 in assay [1] (setting [5]) came out at 2.87 µM; in assay [2] (Tau/Heparin Activity (IC-50)), 28.2 µM.

Consider `CC(=NNc1ccnc2cc(Cl)ccc12)c1ccc(-n2cc[n+](C)c2)nc1` [Compound 23, 1-(5-(1-(2-(7-chloroquinolin-4-yl)hydrazineylidene)ethyl)pyridin-2-yl)-3-methyl-1H-imidazol-3-ium iodide], for which, in assay [1], the inhibition at 30 µM is less than 30%. In addition, the IC50 in assay [2] (Tau/Heparin Activity (IC-50)) is 25.7 µM.

As for `C/C(=N\Nc1nncc2cc(Cl)ccc12)c1ccc(-n2cc(C)nc2C)nc1` [Compound 24, (E)-6-chloro-1-(2-(1-(6-(2,4-dimethyl-1H-imidazol-1-yl)pyridin-3-yl)ethylidene)hydrazineyl)phthalazine], the IC50 in assay [1] (setting [3]) was found to be 6.44 µM; in assay [2] (setting [4]), 37.9 µM.

On to `Cc1ncn(-c2ccc(Nc3ncnc4cc(Cl)ccc34)cn2)c1C` [Compound 25, 7-chloro-N-(6-(4,5-dimethyl-1H-imidazol-1-yl)pyridin-3-yl)quinazolin-4-amine], for which the IC50 in assay [1] (setting [5]) was 3.83 µM. Further, the inhibition at 30 µM in assay [2] is less than 30%.

Consider `C/C(=N\Nc1ncnc2cc(F)ccc12)c1ccc(-n2cc[n+](C)c2)nc1` [Compound 26, (E)-1-(5-(1-(2-(7-fluoroquinazolin-4-yl)hydrazineylidene)ethyl)pyridin-2-yl)-3-methyl-1H-imidazol-3-ium phosphoric acid salt], for which the inhibition at 30 µM in assay [1] was greater than 30%. Further, the IC50 in assay [2] (Tau/Heparin Activity (IC-50)) is 17.7 µM.

On to `C/C(=N\Nc1ncnc2cc(Cl)ccc12)c1ccc(-n2cc(C)nc2C)nc1` [Compound 27, (E)-7-chloro-4-(2-(1-(6-(2,4-dimethyl-1H-imidazol-1-yl)pyridin-3-yl)ethylidene)hydrazineyl)quinazoline hydrochloride], for which the IC50 in assay [1] (setting [3]) was determined as 1.95 µM; in assay [2] (setting [4]) it was 2.86 µM.

As for `CC(=NNc1ncnc2cc(Cl)ccc12)c1ccnc(-n2cnc(C)c2C)c1` [Compound 28, 7-chloro-4-(2-(1-(2-(4,5-dimethyl-1H-imidazol-1-yl)pyridin-4-yl)ethylidene)hydrazineyl)quinazoline], the IC50 was 3.23 µM in assay [1] (setting [3]) and 61.8 µM in assay [2] (setting [4]).

For `C/C(=N\Nc1ncnc2cc(Cl)ccc12)c1cccc(CN(C)C)c1` [Compound 29, 1-(3-(1-(2-(7-chloroquinazolin-4-yl)hydrazineylidene)ethyl)phenyl)—N,N-dimethylmethanamine], the inhibition at 30 µM in assay [1] is greater than 30%. Also, the IC50 in assay [2] (Tau/Heparin Activity (IC-50)) was 32.4 µM.

Regarding `C/C(=N\Nc1ncnc2cc(Cl)ccc12)c1cccc(N2CCN(C)CC2)c1` [Compound 30, 7-chloro-4-(2-(1-(3-(4-methylpiperazin-1-yl)phenyl)ethylidene)hydrazineyl)quinazoline], in assay [1], the inhibition at 30 µM is greater than 30%. Also, in assay [2] (Tau/Heparin Activity (IC-50)), the IC50 is 32.2 µM.

Turning to `COc1cc(Nc2nncc3cc(Cl)ccc23)cnc1-n1cnc(C)c1C` [Compound 31, 6-chloro-N-(6-(4,5-dimethyl-1H-imidazol-1-yl)-5-methoxypyridin-3-yl)phthalazin-1-amine phosphoric acid salt], the inhibition at 30 µM in assay [1] was less than 30%. Also, the IC50 in assay [2] (Tau/Heparin Activity (IC-50)) was found to be 33.7 µM.

`C/C(=N\Nc1ncnc2cc(Cl)ccc12)c1ccc(-n2cncn2)nc1` [Compound 32, (E)-4-(2-(1-(6-(1H-1,2,4-triazol-1-yl)pyridin-3-yl)ethylidene)hydrazineyl)-7-chloroquinazoline]: the values for the inhibition at 30 µM in assay [1] and in assay [2] were greater than 30% and less than 30%, respectively.

Turning to `COc1cc(Nc2cncc3cc(Cl)ccc23)cnc1-n1cnc(C)c1C` [Compound 33, 7-chloro-N-(6-(4,5-dimethyl-1H-imidazol-1-yl)-5-methoxypyridin-3-yl)isoquinolin-4-amine phosphoric acid salt], the inhibition at 30 µM in assay [1] was less than 30%. The IC50 in assay [2] (Tau/Heparin Activity (IC-50)) came to 24.7 µM.

Turning to `Clc1ccc2c(Nc3ccc(-n4cncn4)nc3)ncnc2c1` [Compound 34, N-(6-(1H-1,2,4-triazol-1-yl)pyridin-3-yl)-7-chloroquinazolin-4-amine phosphoric acid salt], the IC50 in assay [1] (setting [5]) was 5.06 µM. For the same molecule, the inhibition at 30 µM in assay [2] was less than 30%.

With `Fc1cc(/C=N/Nc2ccnc3cc(Cl)ccc23)ccc1-n1ccnc1` [Compound 35, (E)-7-chloro-4-(2-(3-fluoro-4-(1H-imidazol-1-yl)benzylidene)hydrazineyl)quinoline hydrochloride], the inhibition at 30 µM in assay [1] was less than 30%. Moreover, the IC50 in assay [2] (Tau/Heparin Activity (IC-50)) was found to be 41.3 µM.

With `CC(=NNc1ccnc2cc(Cl)ccc12)c1ccc(-n2ccnc2)cc1` [Compound 36, 4-(2-(1-(4-(1H-imidazol-1-yl)phenyl)ethylidene)hydrazineyl)-7-chloroquinoline phosphate], the IC50 in assay [1] (setting [5]) came to 4.17 µM; in assay [2] (Tau/Heparin Activity (IC-50)) it was 28.5 µM.
